Experiments:
[1] = test system: RAW264.7 mouse macrophage cell line; test: IL-1β levels after LPS stimulation; type: cell-based; conditions: Dexamethasone, concentration not given; LPS 100 ng/mL; 24 h
Method: (§1) Cultures of the RAW264.7 mouse macrophage cell line were pre-treated with 10-Hydroxy-2-decenoic acid (QBA) for 1 hour prior to stimulation with lipopolysaccharide (LPS, 100 ng/mL). After 24 hours of incubation, interleukin […] (IL-1β) and tumor necrosis factor-α (TNFα) levels were determined by Luminex technology and cell numbers were measured using Alamar Blue. Results are given as a ratio of cytokine concentration/cell number.

[2] = test system: RAW264.7 mouse macrophage cell line; test: TNFα levels after LPS stimulation; type: cell-based; conditions: Dexamethasone, concentration not given; LPS 100 ng/mL; 24 h
Method: as §1

[3] = test system: 19-20 month-old male rats; test: Elevated plus-maze, rats fed QBA alone or QBA+DHA; type: in vivo, rat; conditions: QBA 0, DHA 0.07% weight of diet
Method: Rats were fed QBA and subjected to an elevated plus-maze. The elevated plus-maze was elevated ˜85 cm above the floor and consisted of two open and two closed arms of the same size (50×10 cm). The closed arms were surrounded by walls 40 cm high, and the arms were constructed of black acrylic slabs that radiated from a central platform (10×10 cm) to form a plus sign. Each rat was placed in the central platform facing one of the open arms, and its behavior was recorded during a 5-min testing period with video capture software. More time spent in the open arms is an indication of reduced anxiety-like state. Rats were tested at 18 months old (N=11-13 per group).
The dose-response characteristics of 10-Hydroxy-2-decenoic acid's (QBA's) in combination with DHA for potential brain health benefits during aging were assessed for mood in 19-20 month-old male rats (N=11-14 per group). Rats were fed QBA alone or QBA+DHA and subjected to an elevated plus-maze.

[4] = Body weight of aged male rats fed QBA and/or DHA (Example 8); type: in vivo, rat; conditions: DHA 0.07% weight of diet
Method: Aged male rats were fed 10-Hydroxy-2-decenoic acid (QBA) for approximately […] from 12-months to 20-months of age and the weight of rats was recorded.

[5] = Weight after Barnes maze psychological stress (Example 9); type: in vivo, rat; conditions: for % Change (Weight after Barnes maze): DHA 0.07% weight of diet
Method: Aged male rats were fed 10-Hydroxy-2-decenoic acid (QBA) for approximately […] from 12-months to 20-months of age and the weight of rats was recorded (N=11-14 per group). During the last month of QBA feeding animals were subjected to the psychological stress of the Barnes maze.

[6] = Body weight of aged male rats fed QBA and/or DHA (Example 8); type: in vivo, rat; conditions: DHA 0.07% weight of diet; remark: listed apart in the source

## C[C@@H]1C[C@H]2[C@@H]3CCC4=CC(=O)C=C[C@]4(C)[C@@]3(F)[C@@H](O)C[C@]2(C)[C@@]1(O)C(=O)CO [Dexamethasone, reference compound]
[1]
  IL-1β (pg/mL)/Cell Numbers: 0.0013 (pg/mL)/Cell Numbers
[2]
  TNFα (pg/mL)/Cell Numbers: 0.153 (pg/mL)/Cell Numbers

## CC/C=C\C/C=C\C/C=C\C/C=C\C/C=C\C/C=C\CCC(=O)O [DHA, all-cis-docosa-4,7,10,13,16,19-hexaenoic acid]
[3]
  Time (s) in Open Arm: 32.4 s
[4]; study day 0
  Avg Wt: 552.9 g
[4]; study day 4
  Avg Wt: 568.8 g
[4]; study day 11
  Avg Wt: 579.8 g
[4]; study day 18
  Avg Wt: 592.4 g
[4]; study day 25
  Avg Wt: 594.4 g
[4]; study day 32
  Avg Wt: 600.5 g
[4]; study day 39
  Avg Wt: 605.1 g
[4]; study day 46
  Avg Wt: 607.2 g
[4]; study day 53
  Avg Wt: 610.6 g
[4]; study day 67
  Avg Wt: 616.2 g
[4]; study day 74
  Avg Wt: 617.6 g
[4]; study day 81
  Avg Wt: 619.7 g
[4]; study day 88
  Avg Wt: 623.2 g
[4]; study day 95
  Avg Wt: 624.8 g
[4]; study day 102
  Avg Wt: 629.4 g
[4]; study day 109
  Avg Wt: 632.9 g
[4]; study day 116
  Avg Wt: 636.3 g
[4]; study day 123
  Avg Wt: 631.2 g
[4]; study day 137
  Avg Wt: 633.1 g
[4]; study day 151
  Avg Wt: 634.6 g
[5]; behavior stress day 7
  % Change (Weight after Barnes maze): −0.76%
[5]; behavior stress day 14
  % Change (Weight after Barnes maze): −0.57%
[5]; behavior stress day 21
  % Change (Weight after Barnes maze): −0.88%
[5]; behavior stress day 28
  % Change (Weight after Barnes maze): −0.56%
[5]; behavior stress day 35
  % Change (Weight after Barnes maze): −0.23%
[5]; summary of Table 15
  weight loss associated with the psychological stress: did not produce the same results
[6]; study day 60
  Avg Wt: 614.6 g
[6]; study day 130
  Avg Wt: 635.2 g
[6]; study day 144
  Avg Wt: 632.5 g
